Measured values taken from patent US8039464B2, “Muscarinic antagonists with PARP and SIR modulating activity as agents for inflammatory diseases” (ProteoSys AG, priority 2004, dated 2011).
Where “and” joins values, the source holds several entries; their conditions need not be identical. Identical values can stand only once. Entries after “also recorded” stand apart in the source; their conditions may differ. Like-named read-outs stand apart in the source and are kept apart here.

How the values were obtained:
PARP-1 = target: T1, PARP-1 (Homo sapiens, UniProt P09874); assay: PARP inhibition assay (R&D Systems, Cat. No. TA4669); assay type: biochemical
T1 construct: purchased R&D Systems TA4669
Description: A PARP inhibition assay from R&D Systems was used (Cat. No. TA4669) according to instructions of the supplier.
Under cellular conditions PARP-1 poly-ADP-ribosylates a host of nuclear proteins, including topoisomerase 1, 14-3-3 g and PARP-1 itself. Thus under cellular conditions, the self-modification of PARP-1 and dimerization are regulating its activity, moreover there is a tight interplay with PARG (poly-ADP-ribosyl-glycohydroxylase).

SIR-2 = target: T2, SIR-2 (Mus musculus, UniProt Q923E4); assay: SIR2 activity assay (CycLex SIR2 Assay kit); assay type: biochemical, murine
T2 construct: Using a raw extract from murine embryonic stem cells; host or cells: murine embryonic stem cells (raw extract)
T2 sequence (Q923E4 2-737 limits assumed): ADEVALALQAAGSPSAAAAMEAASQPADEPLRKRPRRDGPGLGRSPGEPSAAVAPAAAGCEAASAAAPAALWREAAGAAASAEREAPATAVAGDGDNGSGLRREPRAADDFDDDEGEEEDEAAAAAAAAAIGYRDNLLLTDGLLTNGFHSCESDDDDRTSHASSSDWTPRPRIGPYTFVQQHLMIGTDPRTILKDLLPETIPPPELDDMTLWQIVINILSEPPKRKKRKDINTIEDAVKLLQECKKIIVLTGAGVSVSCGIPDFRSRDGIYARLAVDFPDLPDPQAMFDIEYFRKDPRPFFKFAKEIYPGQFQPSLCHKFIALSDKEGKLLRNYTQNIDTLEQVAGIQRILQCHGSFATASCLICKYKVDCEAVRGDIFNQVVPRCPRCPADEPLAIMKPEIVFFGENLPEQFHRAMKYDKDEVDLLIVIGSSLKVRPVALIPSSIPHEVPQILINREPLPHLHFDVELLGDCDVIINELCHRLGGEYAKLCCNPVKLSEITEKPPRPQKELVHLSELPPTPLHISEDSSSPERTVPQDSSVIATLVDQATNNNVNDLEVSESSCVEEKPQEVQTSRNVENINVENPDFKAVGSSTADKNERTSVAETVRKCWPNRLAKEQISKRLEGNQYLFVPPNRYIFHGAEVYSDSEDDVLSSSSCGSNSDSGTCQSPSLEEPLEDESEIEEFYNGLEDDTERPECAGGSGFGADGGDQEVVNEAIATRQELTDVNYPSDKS
Description: For measurements of SIR2 activities, the quantitative test kit for NAD-dependent histone deacetylase activity CycLex® SIR2 Assay kit (Cat# CY-1151) was used according to instructions of manufacturer (CycLex Co., Ltd. 1063-103 Ohara, Tera-Sawaoka Ina, Nagano 396-0002 Japan). All substances tested in the SIR assay were cross-checked for their influence on the lysyl-endopeptidase. For this control an already deacetylated substrate peptide was used in order to measure directly lysyl-endopeptidase activity.
For measurements of SIR2 activities, the quantitative test kit for NAD-dependent histone deacetylase activity CycLex® SIR2 Assay kit (Cat# CY-1151) was used according to instructions of manufacturer (CycLex Co., Ltd. 1063-103 Ohara, Tera-Sawaoka Ina, Nagano 396-0002 Japan).

[1] = test system: D3 embryonic stem (ES) cells, neurons; assay: Cell culture model for chemical ischemia and neuroprotection (calcium imaging); assay type: cell-based, mice; settings: β-methyl-cyclodextrin or filipin
Method: For all experiments, D3 embryonic stem (ES) cells derived from 129/sv mice [Okabe et al., 1996] were cultivated for 12 days, with passages on days 2, 4, 7 and 9 as described previously [Sommer et al., 2004]. Insult conditions: Cells (24-well plates) were pre-incubated with or without 20 nM EPO in fresh medium for 24 hours at 37° C. Cells were rinsed once with low K^+ solution (140 mM NaCl, 4.7 mM KCl, 1.2 mM KH2PO4, 2.5 mM CaCl2, 1.2 mM MgSO4, 11 mM glucose, 15 mM Hepes-NaOH, pH 7.35). Cells (either with or without EPO pre-incubation) were incubated for up to 45 min (37° C.) with either low K^+ solution or with glucose-free low K^+ solution supplemented with 1 mM KCN (chemical ischemia solution [Kume et al., 2002]). Vitality control to asses numbers of surviving neurons was performed by a brief stimulation with a low dose of glutamate (10 μM). Afterwards, cells were washed three times with ice cold phosphate buffered saline (PBS), and then proteins were harvested. Suspended cells were pelleted at 500×G, and lysed into 9M urea 4% CHAPS. The cell lysate was desalted with a NAP-10 column (Amersham Biosciences), preequilibrated with the same buffer, and protein content was determined.
Functional tests by calcium imaging were performed essentially as described [Sommer et al., 2004]. Briefly, cells were loaded with 2 μM of […] in DMEM for 45 min at 37° C. in the dark. Measurements of relative changes in [Ca^2+] were made on an inverted epifluorescence microscope (Olympus IX70 S1F2) with a Polychrom IV Monochromator (Xe-lamp, USHIO). Excitation wavelengths (λ1, λ2) and the emission wavelength were 340, 380 and 510 nm, respectively. Acquisition and analysis of data after appropriate stimulation were performed by using MetaFluor software (Universal Imaging Corporation). Image resolution was 168×129 pixels (binning 8×8, pixel size 6.8×6.8 μm). Only cells identified as neurons by morphological criteria and occasional immunostaining (not shown) and those whose calcium levels returned to the resting state after the first stimulation were taken into account. Controls included nominal zero calcium (negative) and 5 μM ionomycin (positive), 10 μM glutamate (positive) and depolarisation (55 mM K+) (positive). Pharmacological agents were applied by a multi-valve, single-output focal drug application device (ALA Scientific) with the perfusion system DAD-12. […] During each stimulation event 20 image pairs were acquired.

[2] = test system: poly-ADP-ribosylated proteins; assay: PARP inhibition under cellular conditions (Western blot of poly-ADP-ribosylated proteins); assay type: cell-based; settings: ischemic insult of neural cells by KCN/glucose deprivation; read-out: IC 50 of decrease of poly-ADP-ribosylated proteins
3T3 fibroblasts = assay: LPS challenge, cell survival by Trypan Blue; assay type: cell-based; settings: LPS 100 ng/ml for 60 min
Method: (§1) Cell pellets were further investigated by Western blot staining with anti Cox-2 and anti iNOS antibodies of 1D polyacrylamide gels.
(§2) Cell survival was assessed by Trypan Blue staining.

A 549 cells = assay: LPS challenge, cell survival by Trypan Blue; assay type: cell-based; settings: LPS 100 ng/ml for 60 min
Method: as §1, §2

[3] = test system: neurally differentiated V56 embryonic stem cells; assay: LPS challenge, cell survival by Trypan Blue; assay type: cell-based; settings: LPS 100 ng/ml for 60 min
Method: as §1, §2

[4] = test system: undifferentiated V56 embryonic stem cells; assay: LPS challenge, cell survival by Trypan Blue; assay type: cell-based; settings: LPS 100 ng/ml for 60 min
Method: as §1, §2

iNOS and Cox-2 = assay: Cox-2 and iNOS expression after LPS challenge (Western blot); assay type: cell-based; settings: LPS 100 ng/ml for 60 min
Method: as §1, §2

[5] = Blood-brain-barrier passage: HPLC of plasma and CSF
Description: J. Gastroenterol. 66, 35ff.; Homon et al., 1987, Therapeutic Drug Monitoring 9, 236ff.).

[6] = test system: traumatic brain injury (TBI); assay: Controlled Cortical Impact Injury (traumatic brain injury model); assay type: in vivo
Method: The model employed a direct shock to the dura via a burrhole, animals were treated according to the following schemes: Vehicle, LS-75, 8 animals per group starting the study, 2 spare animals; animals were sacrificed 44 h after injury, the endpoints were survival, post injury signs, lesion size by FLB (Fast Luxol Blue) and EMAP (Endothelial, Monocyte, Activating Peptide) staining. The dosing i.p. 100 mg/kg 2 h prior to injury; 40 mg/kg i.p. 2 h after injury; 40 mg/kg i.p. 8 h after injury; 40 mg/kg i.p. 17 h after injury; 40 mg/kg i.p. 25 h after injury; 70 mg/kg i.p. 34 h after injury; Formulation: LS-75 was prepared as a DMSO slurry (not solution) in a mortar and pestle and saline will be added slowly with grinding to reach 4% DMSO final concentration. The suspension is maintained at room temperature and the preparation used for the duration of the study. To vary dose, the volume injected may change. Volume for 100 mg/kg was be 4 mL/kg.

T1 sequence (P09874 whole entry): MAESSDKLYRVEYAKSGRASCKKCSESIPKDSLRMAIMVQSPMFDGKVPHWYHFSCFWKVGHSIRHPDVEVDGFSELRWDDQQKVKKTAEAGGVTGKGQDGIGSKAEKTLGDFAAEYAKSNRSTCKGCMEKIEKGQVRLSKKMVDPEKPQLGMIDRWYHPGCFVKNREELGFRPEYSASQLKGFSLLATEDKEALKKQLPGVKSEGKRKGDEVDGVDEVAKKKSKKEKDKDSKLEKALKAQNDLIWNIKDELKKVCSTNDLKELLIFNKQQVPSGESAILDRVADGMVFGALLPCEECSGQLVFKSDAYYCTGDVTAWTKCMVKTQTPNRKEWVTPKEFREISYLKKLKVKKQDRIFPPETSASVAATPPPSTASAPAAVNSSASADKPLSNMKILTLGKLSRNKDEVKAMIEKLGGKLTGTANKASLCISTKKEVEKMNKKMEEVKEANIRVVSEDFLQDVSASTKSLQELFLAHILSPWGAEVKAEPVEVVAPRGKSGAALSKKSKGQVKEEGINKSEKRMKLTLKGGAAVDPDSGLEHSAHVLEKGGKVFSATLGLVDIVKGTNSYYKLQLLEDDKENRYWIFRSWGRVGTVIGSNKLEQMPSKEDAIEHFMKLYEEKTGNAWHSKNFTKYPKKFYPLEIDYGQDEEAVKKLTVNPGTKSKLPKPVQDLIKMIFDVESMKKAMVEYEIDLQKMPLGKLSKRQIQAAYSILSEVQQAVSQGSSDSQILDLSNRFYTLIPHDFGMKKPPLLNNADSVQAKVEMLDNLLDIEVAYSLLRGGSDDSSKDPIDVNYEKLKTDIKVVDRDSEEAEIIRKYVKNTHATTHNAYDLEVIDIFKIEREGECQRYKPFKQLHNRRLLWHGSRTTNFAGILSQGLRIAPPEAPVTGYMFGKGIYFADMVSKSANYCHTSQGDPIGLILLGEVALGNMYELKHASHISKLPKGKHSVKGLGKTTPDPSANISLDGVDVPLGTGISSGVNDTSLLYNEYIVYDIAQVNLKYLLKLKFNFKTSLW

O=C1Nc2cccnc2Nc2ccccc21 [LS-75, 6H-pyrido[2,3-b][1,4]benzodiazepin-6-one]
PARP-1 inhibition (in words) (PARP-1): moderately strong PARP-1 inhibitor | IC50 (PARP-1; IC50 PARP-1 inhibition, R&D assay, recombinant monomeric PARP-1): 18 µM and ~20 µM | IC50 (SIR-2): 1000 to 5000 µM | SIR-2 inhibition (in words) (SIR-2): weak SIR 2 inhibitor; also recorded: weak SIR-2 inhibitors | SIR-2 inhibition (in words) (SIR-2; listed as PBD/LS-75): weak inhibitory effect | neuroprotective effect under raft-disrupting conditions [1]: does not occur | IC50 [2]: ~0.3 µM | protection from LPS challenge (3T3 fibroblasts): protect | protection from LPS challenge (A 549 cells): protect | protection from LPS challenge [3]: protect | protection from LPS challenge [4]: protect | expression of inducible inflammatory markers iNOS and Cox-2 (iNOS and Cox-2): decreased expression | passage through the BBB ([5]; LS-75 applied directly): substantial passage | LS-75 levels in CSF ([5]; after Pirenzepine application, after 6 h): substantial increase | Kp ([5]; rat, in vivo, 50 mg/kg): 0.25 to 0.3 | LS-75 in CSF after Mevastatin pretreatment ([5]; rats, Mevastatin 0.15 mg/day for 14 days before oral gavage): far less | higher concentrations in plasma after Mevastatin pretreatment ([5]; rats, Mevastatin 0.15 mg/day for 14 days before oral gavage of 50 mg Pirenzepine and LS-75): about 50% | reduction of secondary lesions ([6]; 44 h after induction of TBI, i.p. dosing, compared to vehicle controls): approx. 50% | reduction of markers for cell damage (fast luxol blue and EMAP) ([6]; contralateral hippocampus, compared to controls): 40-60%
